# Target: T1, rat MCH1 receptor (Rattus norvegicus, UniProt P97639)
# T1 construct: expressed in transfected cells; host or cells: Human embryonic kidney Peak rapid 293 cells (Peakr293), transient, calcium phosphate; membranes
# Experiment: Radioligand binding assay at cloned rat MCH1 receptor ([3H]Compound A displacement)
# Settings: KI, cloned rat MCH1, membranes of transfected Peakr293 cells, 0.08 nM [3H]Compound A, 25° C., 90 minutes
# Experimental: For binding assays, pellets of transfected cells are suspended in ice-cold buffer (20 mM Tris.HCl, 5 mM EDTA, pH 7.4) and homogenized by sonication for 7 sec. The cell lysates are centrifuged at 200×g for 5 min at 4° C. The supernatants are then centrifuged at 40,000×g for 20 min at 4° C. The resulting pellets are washed once in the homogenization buffer and suspended in binding buffer (see methods for radioligand binding). Protein concentrations are determined by the method of Bradford (1976) using bovine serum albumin as the standard. Binding assays are usually performed immediately, however it is possible to prepare membranes in batch and store frozen in liquid nitrogen for future use.
# Radioligand binding assays for the rat MCH1 receptor were carried out using plasmid pcDNA3.1-rMCH1-f (ATCC Patent Deposit Designation No. PTA-3505). Plasmid pcDNA3.1-rMCH1-f comprises the regulatory elements necessary for expression of DNA in a mammalian cell operatively linked to DNA encoding the rat MCH1 receptor so as to permit expression thereof. Plasmid pcDNA3.1-rMCH1-f was deposited on Jul. 5, 2001, with the American Type Culture Collection (ATCC), 12301 Parklawn Drive, Rockville, Md. 20852, U.S.A. under the provisions of the Budapest Treaty for the International Recognition of the Deposit of Microorganisms for the Purposes of Patent Procedure and was accorded ATCC Patent Deposit Designation No. PTA-3505.
# Human embryonic kidney Peak rapid 293 cells (Peakr293 cells) were transiently transfected with DNA encoding the MCH1 receptor utilizing the calcium phosphate method and cell membranes were prepared as described above. Binding experiments with membranes from Peakr293 cells transfected with the rat MCH1 receptor were performed with 0.08 nM [^3H]Compound A (custom labeled by Amersham) (the synthesis of Compound A is described in detail below) using an incubation buffer consisting of 50 mM Tris pH 7.4, 10 mM MgCl2, 0.16 mM PMSF, 1 mM 1,10 phenantroline and 0.2% BSA. Binding was performed at 25° C. for 90 minutes. Incubations were terminated by rapid vacuum filtration over GF/C glass fiber filters, presoaked in 5% PEI using […] Tris pH 7.4 as wash buffer. In all experiments, nonspecific binding is defined using […] Compound A.
# The compounds described above were assayed using cloned rat MCH1.
# T1 sequence (P97639 whole entry): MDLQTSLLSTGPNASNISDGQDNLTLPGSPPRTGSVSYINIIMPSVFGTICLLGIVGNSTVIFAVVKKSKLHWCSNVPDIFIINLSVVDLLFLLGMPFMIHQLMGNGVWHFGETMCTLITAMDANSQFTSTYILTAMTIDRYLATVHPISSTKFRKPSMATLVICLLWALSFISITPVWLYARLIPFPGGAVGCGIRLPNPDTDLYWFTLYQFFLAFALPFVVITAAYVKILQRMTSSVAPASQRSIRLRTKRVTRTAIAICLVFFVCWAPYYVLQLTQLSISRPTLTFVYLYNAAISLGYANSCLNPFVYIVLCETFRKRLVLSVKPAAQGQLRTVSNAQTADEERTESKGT
row,Compound,Ki
1,"O=C1c2ccccc2C(=O)N1CCCCN1CCC2(C=Cc3ccccc32)CC1 [Example 1, 2-(4-(-(SPIRO[INDENE-1,4′-PIPERIDINE]-10-YL)BUTYL)BENZO[C]AZOLINE-1,3-DIONE]",807 nM
2,"O=C(NCCCCCN1CCC2(CCc3ccccc32)CC1)C(c1ccccc1)c1ccccc1 [Example 3, 2,2-DIPHENYL-N-(5-(SPIRO[INDANE-1,4′-PIPERIDINE]-10-YL)PENTYL)ACETAMIDE]",378 nM
3,"O=C(NCCCCCCN1CCC2(CCc3ccccc32)CC1)C(c1ccccc1)c1ccccc1 [Example 5, 2,2-DIPHENYL-N-(6-(SPIRO[INDANE-1,4′-PIPERIDINE]-10-Y)LHEXYL)ACETAMIDE]",732 nM
4,"O=C(Cc1ccc(F)cc1)NCCCCN1CCC2(CCc3ccccc32)CC1 [Example 9, 2-(4-FLUOROPHENYL)-N-(4-(SPIRO[INDANE-1,4′-PIPERIDINE]-10-YL)BUTYL)ACETAMIDE]",691 nM
5,"CCCc1nn(-c2ccc(Cl)cc2)cc1C(=O)NCCCCCCN1CCC2(CCc3ccccc32)CC1 [Example 10, [1-(4-CHLOROPHENYL)-3-PROPYL)PYRAZOL-4-YL]-N-(6-(SPIRO[INDANE-1,4′-PIPERIDINE]-10-YL)HEXYL)CARBOXAMIDE]",764 nM
6,O=C(NCCCCCCN1CCC2(CCc3ccccc32)CC1)c1cc(F)cc(F)c1 [Example 14],843 nM
7,"O=C(NCCCCN1CCC2(CCc3ccccc32)CC1)c1ccc(Oc2cc(Cl)cc(Cl)c2)o1 [Example 15, [5-(3,5-dichlorophenoxy)(2-furyl)]-N-(4-(SPIRO[indane-1,4′-piperidine]-10-YL)BUTYL)carboxamide]",434 nM
8,"O=C(NCCCCCCN1CCC2(CCc3ccccc32)CC1)c1ccc(Oc2cc(Cl)cc(Cl)c2)o1 [Example 16, [5-(3,5-DICHLOROPHENOXY)(2-FURYL)]-N-(6-(SPIRO[INDANE-1,4′-PIPERIDINE]-10-YL)HEXYL)CARBOXAMIDE]",450 nM
9,"O=C(NCCCN1CCC2(CCc3ccccc32)CC1)c1ccc(Oc2cc(Cl)cc(Cl)c2)o1 [Example 17, [5-(3,5-DICHLOROPHENOXY)(2-FURYL)]-N-(3-(SPIRO[INDANE-1,4′-PIPERIDINE]-10-YL)PROPYL)CARBOXAMIDE]",935 nM
10,"O=C(NCCCCCCN1CCC2(CCc3ccccc32)CC1)c1ccc(F)c(F)c1 [Example 19, (3,4-DIFLUOROPHENYL)-N-(6-(SPIRO[INDANE-1,4′-PIPERIDINE]-10-YL)HEXYL)CARBOXAMIDE]",412 nM
11,"CC(C)(C)c1cc(C(=O)NCCCCCCN2CCC3(CCc4ccccc43)CC2)n(Cc2ccccc2)n1 [Example 20, [3-(TERT-BUTYL)-1-BENZYL)PYRAZOL-5-YL]-N-(6-(SPIRO[INDANE-1,4′-PIPERIDINE]-10-YL)HEXYL)CARBOXAMIDE]",510 nM
12,"S=C(NCCCCCN1CCC2(CCc3ccccc32)CC1)Nc1cccc2ccccc12 [Example 22, (NAPHTHYLAMINO)[(5-(SPIRO[INDANE-1,4′-PIPERIDINE]-10-YL)PENTYL)AMINO]METHANE-1-THIONE]",517 nM
13,"S=C(NCCCCN1CCC2(CCc3ccccc32)CC1)Nc1cccc2ccccc12 [Example 23, (NAPHTHYLAMINO)[(4-(SPIRO[INDANE-1,4′-PIPERIDINE]-10-YL-BUTYL)AMINO]METHANE-1-THIONE]",818 nM
14,"S=C(NCCCCCCN1CCC2(CCc3ccccc32)CC1)Nc1cccc2ccccc12 [Example 24, (NAPHTHYLAMINO)[(6-SPIRO[INDANE-1,4′-PIPERIDINE]-10-YLHEXYL)AMINO]METHANE-1-THIONE]",668 nM
15,"O=C(NCCCCN1CCC2(CCc3ccccc32)CC1)Nc1cc(Cl)cc(Cl)c1 [Example 26, N-(3,5-DICHLOROPHENYL)[(4-SPIRO[INDANE-1,4′-PIPERIDINE]-10-YLBUTYL)AMINO]CARBOXAMIDE]",512 nM
16,"O=C(NCCCCN1CCC2(CCc3ccccc32)CC1)c1sc2ccccc2c1Cl [Example 34, (3-CHLOROBENZO[B]THIOPHEN-2-YL)-N-(4-(SPIRO[INDANE-1,4′-PIPERIDINE]-10-YL)BUTYL)CARBOXAMIDE]",883 nM

# Same assay, conditions: cloned rat MCH1, membranes of transfected Peakr293 cells, 0.08 nM [3H]Compound A, 25° C., 90 minutes; read-out: KI
row,Compound,Ki
1,"O=C(NCCCCCCN1CCC2(CCc3ccccc32)CC1)c1ccc(-c2ccccc2)cc1 [Example 2, (4-PHENYL)PHENYL)-N-(6-(SPIRO[INDANE-1,4′-PIPERIDINE]-10-YL)HEXYL)CARBOXAMIDE]",970 nM
2,"O=C(NCCCCN1CCC2(CCc3ccccc32)CC1)C(c1ccccc1)c1ccccc1 [Example 4, 2,2-DIPHENYL-N-(4-(SPIRO[INDANE-1,4′-PIPERIDINE]-10-YL)BUTYL)ACETAMIDE]",214 nM
3,"O=C(NCCCN1CCC2(CCc3ccccc32)CC1)C(c1ccccc1)c1ccccc1 [Example 6, 2,2-DIPHENYL-N-(3-(SPIRO[INDANE-1,4′-PIPERIDINE]-10-YL)PROPYL)ACETAMIDE]",33.8 nM
4,"O=C(NCCCCN1CCC2(CCc3ccccc32)CC1)c1cc(Cl)cc(Cl)c1 [Example 7, (3,5-DICHLOROPHENYL)-N-[(4-(SPIRO[INDANE-1,4′-PIPERIDINE]-10-YL)BUTYL)AMINO]CARBOXAMIDE]",271 nM
5,"O=C(NCCCN1CCC2(CCc3ccccc32)CC1)c1cc(Cl)cc(Cl)c1 [Example 8, (3,5-DICHLOROPHENYL)-N-(3-(SPIRO[INDANE-1,4′-PIPERIDINE]-10-YL)PROPYL)CARBOXAMIDE]",914 nM
6,"Cc1onc(-c2c(F)cccc2Cl)c1C(=O)NCCCCCCN1CCC2(CCc3ccccc32)CC1 [Example 12, [3-(2-CHLORO-6-FLUOROPHENYL)-5-METHYLISOXAZOL-4-YL]-N-(6-(SPIRO[INDANE-1,4′-PIPERIDINE]-10-YL)HEXYL)CARBOXAMIDE]",661 nM
7,"O=C(NCCCCN1CCC2(CCc3ccccc32)CC1)c1cc(F)cc(F)c1 [Example 13, (3,5-DIFLUOROPHENYL)-N-(4-(SPIRO[INDANE-1,4′-PIPERIDINE]-10-YL)BUTYL)CARBOXAMIDE]",270 nM
8,"O=C(NCCCCN1CCC2(CCc3ccccc32)CC1)c1cccc(Cl)c1 [Example 18, (3-CHLOROPHENYL)-N-(4-(SPIRO[INDANE-1,4′-PIPERIDINE]-10-YL)BUTYL)CARBOXAMIDE]",342 nM
9,"O=S(=O)(NCCCCCN1CCC2(CCc3ccccc32)CC1)c1cccc(C(F)(F)F)c1 [Example 21, (5-(SPIRO[INDANE-1,4′-PIPERIDINE]-10-YL)PENTYL){[3-(TRIFLUORO-METHYL)PHENYL]SULFONYL}AMINE]",992 nM
10,"O=C(NCCCCCN1CCC2(CCc3ccccc32)CC1)Nc1cc(Cl)cc(Cl)c1 [Example 25, N-(3,5-DICHLOROPHENYL)[(5-(SPIRO[INDANE-1,4′-PIPERIDINE]-10-YL)PENTYL)AMINO]CARBOXAMIDE]",542 nM
11,"O=C(NCCCCCN1CCC2(CCc3ccccc32)CC1)Nc1ccc(-c2ccccc2)cc1 [Example 27, N-(4-PHENYL)PHENYL)[(5-(SPIRO[INDANE-1,4′-PIPERIDINE]-10-YL)PENTYL)AMINO]CARBOXAMIDE]",662 nM
12,"O=C(NCCCCN1CCC2(CCc3ccccc32)CC1)Nc1ccc(-c2ccccc2)cc1 [Example 28, N-(4-PHENYL)PHENYL)[(4-(SPIRO[INDANE-1,4′-PIPERIDINE]-10-YL)BUTYL)AMINO]CARBOXAMIDE]",549 nM
13,"O=C(NCCCCCCN1CCC2(CCc3ccccc32)CC1)c1ccc(-c2ccccc2)cc1 [Example 29, (4-PHENYL)PHENYL)-N-(6-(SPIRO[INDANE-1,4′-PIPERIDINE]-10-YL)HEXYL)CARBOXAMIDE]",431 nM
14,"O=C(NCCCCCN1CCC2(CCc3ccccc32)CC1)c1cccnc1Oc1ccc(Cl)cc1 [Example 31, [2-(4-CHLOROPHENOXY)(3-PYRIDYL)]-N-(5-(SPIRO[INDANE-1,4′-PIPERIDINE]-10-YL)PENTYL)CARBOXAMIDE]",212 nM
15,"O=C(NCCCCN1CCC2(CCc3ccccc32)CC1)c1cccnc1Oc1ccc(Cl)cc1 [Example 32, [2-(4-CHLOROPHENOXY)(3-PYRIDYL)]-N-(4-(SPIRO[INDANE-1,4′-PIPERIDINE]-10-YL)BUTYL)CARBOXAMIDE]",388 nM
16,"O=C(NCCCCCCN1CCC2(CCc3ccccc32)CC1)c1cccnc1Oc1ccc(Cl)cc1 [Example 33, [2-(4-CHLOROPHENOXY)(3-PYRIDYL)]-N-(6-(SPIRO[INDANE-1,4′-PIPERIDINE]-10-YL)HEXYL)CARBOXAMIDE]",431 nM
17,"Cc1onc(-c2ccccc2Cl)c1C(=O)NCCCCN1CCC2(CCc3ccccc32)CC1 [Example 35, [3-(2-CHLOROPHENYL)-5-METHYLISOXAZOL-4-YL]-N-(4-(SPIRO[INDANE-1,4′-PIPERIDINE]-10-YL)BUTYL)CARBOXAMIDE]",825 nM
18,"O=C(NCCCCCN1CCC2(C=Cc3ccccc32)CC1)c1sc2ccccc2c1Cl [Example 36, (3-CHLOROBENZO[B]THIOPHEN-2-YL)-N-(5-(SPIRO[INDENE-1,4′-PIPERIDINE]-10-YL)PENTYL)CARBOXAMIDE]",736 nM
